Laboratory results as given in patent publication US20200140483A1, “USE OF Y PEPTIDE IN PREPARATION OF DRUG OR HEALTHCARE PRODUCT FOR LOWERING BLOOD PRESSURE” (priority 2017, published 2020).
Residues, ends and D or L forms follow the SMILES beside them.

System: SHR rats
Assay type: in vivo, rat
Protocol: Each group was intragastrically administrated a solution of a corresponding tested substance or ultrapure water, in a volume of 10 mL/kg body weight, once per day for 30 consecutive days. The blood pressure and heart rates of the animals were measured during the administration of the tested substance. The blood pressure was measured with an LE5002 noninvasive blood pressure meter.

Compound: N[C@@H](Cc1ccc(O)cc1)C(=O)N[C@@H](Cc1ccc(O)cc1)C(=O)O [YY-peptide] (H-Tyr-Tyr-OH; N-terminus and C-terminus assumed)
- blood pressure (SHR rats, 10 mg/kg intragastric once per day, 7th day, model control 161±6): 157±7
- effect in lowering blood pressure (SHR rats, 10 mg/kg, 7th day): significant effect in lowering blood pressure
- effect on body weight (rat, in vivo, 10 mg/kg): no obvious effect
- effect on heart rates (rat, in vivo, 10 mg/kg): no obvious effect
